Reference: patent US5227391A, “Method for treatment of neurodegenerative diseases” (R. J. Reynolds Tobacco Company, priority 1992, dated 1993)

Target: high affinity nicotinic receptors
Details: read-out: Ki (nM), inhibition of L-[3H]nicotine binding; mouse brain membranes (cerebellum removed), 10 nM L-[3H]nicotine, 2 hr at 4° C.; Ki calculated from IC50 by the method of Cheng et al.
Procedure: Mice were killed by cervical dislocation. Brains were removed and placed on an ice-cold platform. […] Prior to each centrifugation step, the suspension was incubated at 37° C. for 5 min. to promote hydrolysis of endogenous acetylcholine. The final pellet was overlayered with buffer and stored at -70° C.
The binding of L-[^3 H]nicotine was measured using a 2 hr. incubation at 4° C. Incubations contained about 500 μg of protein and were conducted in 12 mm×75 mm polypropylene test tubes in a final incubation volume of 250 μl. The incubation buffer was Krebs-Ringers HEPES containing 200 mM TRIS buffer, pH 7.5. The binding reaction was terminated by filtration of the protein containing bound ligand onto glass fiber filters (Micro Filtration Systems) that had been soaked in buffer containing 0.5 percent polyethyleneimine. Filtration vacuum was -50 to -100 torr. Each filter was washed five times with 3 ml of ice-cold buffer. The filtration apparatus was cooled to 2° C. before use and was kept cold through the filtration process. […] The inhibition of L-[^3 H]nicotine binding by test compounds was determined by including one of eight different concentrations of the test compound in the incubation.

For `CN1CCC[C@@H]1c1cccnc1` [(R)-(+)-nicotine], the Ki was 113 nM.
